Values quoted from earlier work, collected in patent publication US6114314A (priority 1994, dated 2000).

Tests used:
[1] = test system: macrophages; conditions: tissue culture
[2] = test system: experiment neoplasm; conditions: with Interleukin 2
[3] = in cross-linked hyaluronic acid gel
[4] = test system: rabbit eye; conditions: in vivo

Compound | malfunction of macrophages (block due to excessive prostaglandin) [1] | further results
CC(=O)Oc1ccccc1C(=O)O [ASA, acetylsalicylic acid] | can be altered | –
COc1ccc2c(c1)c(CC(=O)O)c(C)n2C(=O)c1ccc(Cl)cc1 [indomethacin] | can be altered | cure of experiment neoplasm [2]: could effect a cure
COc1ccc2cc([C@H](C)C(=O)O)ccc2c1 [naproxen] | can be altered | –
heparin | – | antithrombogenic activity [3]: retained its antithrombogenic activity
sodium hyaluronate [sodium hyaluronate (LifeCore)] | – | Biological Safety Testing, Rabbit Ocular Toxicity Test [4]: Passes
